Source: patent US20160081980A1, “Composition Comprising AMD3100 For Preventing or Treating Bone Diseases” (KYUNGPOOK NATIONAL UNIVERSITY INDUSTRY-ACADEMIC COOPERATION …, priority 2013, published 2016)

Assays:
SDF-1 = details: AMD3100 5 mg/kg/day intraperitoneal for 21 days vs PBS
[1] = test system: Osteocalcin, PTHR1, Osterix, Runx2; details: bone marrow of OVX and control mice, real-time PCR; FIG. 4
OVX mice [2] = details: AMD3100-treated OVX mice compared to PBS-treated OVX mice, 21 days; FIG. 5
Protocol: 12-week-old female C57BL/6 mice were purchased from Jackson Laboratory (Bar Harbor, ME). Mice were housed in an air-conditioned room with a 12 hour light/dark cycle at a temperature of 22±2° C. and humidity of 45-65%, and given free access to food and tap water. Mice underwent either sham surgery or ovariectomy (OVX) at 12 weeks of age and were sacrificed at 16 weeks of age. One week after surgery, sham-operated and OVX mice received an intraperitoneal injection with AMD3100 (Sigma-Aldrich #A5602, St. Louis, Mo., sigma Aldrich.com) (5 mg/kg/day) or PBS for 21 days. At the end of treatment, the mice were sacrificed, and blood samples were collected by cardiac puncture for the colony-forming unit (CFU) assay.
Single-cell suspensions of peripheral blood (PB) after ammonium chloride lysis were plated into 35 mm dishes (3×10^5 cells/plate) with MethoCult GF M3434 (StemCell Technologies). Hematopoietic colonies were counted and scored after incubation for 12-14 days at 37° C., 5% CO2, as instructed by the manufacturer.
In order to determine whether AMD3100 may mobilize HSPCs from bone marrow in OVX mice, AMD3100 or PBS was administered to OVX mice for 21 days.

OVX mice [3] = details: AMD3100-treated vs PBS-treated OVX mice; did not reach statistical significance; FIGS. 6 & 7
Protocol: 12-week-old female C57BL/6 mice were purchased from Jackson Laboratory (Bar Harbor, ME). Mice were housed in an air-conditioned room with a 12 hour light/dark cycle at a temperature of 22±2° C. and humidity of 45-65%, and given free access to food and tap water. Mice underwent either sham surgery or ovariectomy (OVX) at 12 weeks of age and were sacrificed at 16 weeks of age. One week after surgery, sham-operated and OVX mice received an intraperitoneal injection with AMD3100 (Sigma-Aldrich #A5602, St. Louis, Mo., sigma Aldrich.com) (5 mg/kg/day) or PBS for 21 days. At the end of treatment, the mice were sacrificed, and blood samples were collected by cardiac puncture for the colony-forming unit (CFU) assay. Femora were removed, fixed with 4% paraformaldehyde in phosphate-buffered physiological saline solution (pH 7.4) for 16 hours, and then stored at 4° C. in 80% ethanol for measurement of bone density.
Bone marrow cells from the femurs and tibias were collected by flushing with 20 ml PBS passed through a 25-gauge needle. After centrifugation at 1,300 rpm for 5 minutes, the supernatant was removed and the cells were then washed by ammonium chloride lysis. […]

OVX mice [4] = details: AMD3100-treated vs PBS-treated OVX mice
BM-derived macrophages = details: RANKL 100 ng/ml, M-CSF 30 ng/ml, AMD3100 25 mg/ml for 3 days; FIG. 10
Protocol: Total RNA was extracted from BM cultures treated with or without RANKL in the presence or absence of AMD3100 (25 g/ml) for 3 days. […] RNA samples were extracted from whole bone marrow (BM) cells of four individual animals per group and isolated from the cultured cells using the RNeasy Mini kit (Qiagen, Hilden, Germany), and the concentration was determined using a Nanodrop ND-1000 spectrophotometer. A total of 5 mg of each RNA was converted to cDNA using the sprint RT complete-oligo (dT) 18 (Clontech, MountainView, Calif., www.clontech.com) according to the manufacturer's guide. The cDNA was quantified using the QuantiTect SYBR Green PCR Kit (Qiagen). The following reaction components were added to each investigated transcript to the indicated end-concentration: forward primer (5 pM), reverse primer (5 pM), and QuantiTect SYBR Green PCR Master mix. The 10 μl master-mix was added to a 0.1 ml tube, and 5 μl volume, containing 100 ng reverse transcribed total RNA, was added as polymerase chain reaction (PCR) template. The tubes were closed, centrifuged, and placed into the Corbett research RG-6000 real-time PCR machine (Corbett LifeScience, Sydney, Australia). The following primers were used: Bone marrow cells were obtained from the femurs and tibias of seven-week-old mice. The bone marrow suspension was added to plates along with macrophage colony stimulating factor (M-CSF; 30 ng/ml). […]

OVX mice [5] = test system: OVX mice

Q: Which results are given for `c1cc(CN2CCCNCCNCCCNCC2)ccc1CN1CCCNCCNCCCNCC1` [AMD3100, 1,1′-[1,4-Phenylenebis(methylene)]bis[1,4,8,1]-tetraazacyclotetradecanel]?
A: levels of functional SDF-1 in bone marrow (SDF-1; bone marrow supernatant, FIG. 2): decreased; levels of functional SDF-1 in plasma (SDF-1; plasma, FIG. 3): increased; levels of osteoblast lineage-specific genes (Osteocalcin, PTHR1, Osterix, Runx2) [1]: no significant differences; number of CFU cells in blood (OVX mice [2]): significant increase; percentage of Lin-Sca-1+c-Kit+ (LSK) cells in bone marrow (OVX mice [3]): decrease; bone density in micro-CT images of the distal femur (OVX mice [4]; FIG. 8): increased bone density; bone mineral density (BMD) (OVX mice [4]; FIG. 9): increase; osteoclast differentiation (expression of genes associated with osteoclast differentiation) (BM-derived macrophages): did not affect osteoclast differentiation; osteoblast number/bone surface [N.Ob/BS (/mm)] (OVX mice [5]; H&E staining, AMD3100 treatment groups, FIG. 13): did not change significantly; number and size of TRAP+ active osteoclasts in the trabecular region (OVX mice [5]; TRAP staining, AMD3100-treated OVX mice, FIG. 11): decrease; osteoclast number/bone surface [N.Oc/BS (/mm)] (OVX mice [5]; histomorphometry, AMD3100-treated vs PBS-treated OVX mice, FIG. 12): decrease
